What was measured:
[1] = biological target: T1, Anabaena ADP-Glc PPase (Ana WT) (Nostoc sp. PCC 7120 = FACHB-418, UniProt P30521); experiment: colorimetric Pi release assay (PPi hydrolysed by pyrophosphatase), Hill fit; assay type: biochemical; conditions: read-out: A 0.5
T1 construct: gene glgC; recombinant from plasmid pAnaE3a in E. coli AC70R1-504, purified, homotetramer, no tag mentioned
Description: (§1) colorimetric Pi release assay (PPi hydrolysed by pyrophosphatase), Hill fit on Anabaena ADP-Glc PPase (Ana WT)

[2] = biological target: T2, Anabaena ADP-Glc PPase (Nostoc sp. PCC 7120 = FACHB-418, UniProt P30521, Q58A); experiment: as above; assay type: biochemical; conditions: read-out: A 0.5
T2 construct: gene glgC; recombinant from plasmid pAnaE3a in E. coli AC70R1-504, purified, homotetramer, no tag mentioned
Description: as §1

[3] = biological target: T3, Anabaena ADP-Glc PPase (Nostoc sp. PCC 7120 = FACHB-418, UniProt P30521, W96A); experiment: as above; assay type: biochemical; conditions: read-out: A 0.5
T3 construct: gene glgC; recombinant from plasmid pAnaE3a in E. coli AC70R1-504, purified, homotetramer, no tag mentioned
Description: as §1

[4] = biological target: T4, potato tuber ADP-Glc PPase (StuS/StuL) (Solanum tuberosum, UniProt P23509+Q00081); conditions: read-out: A 0.5; allosteric activator; 1.5 mM ATP, 0.5 mM [14C]Glc-1P, 7 mM MgCl2, 50 mM HEPPS pH 8.0, 37°C
T4 sequence (P23509 71-521 limits assumed): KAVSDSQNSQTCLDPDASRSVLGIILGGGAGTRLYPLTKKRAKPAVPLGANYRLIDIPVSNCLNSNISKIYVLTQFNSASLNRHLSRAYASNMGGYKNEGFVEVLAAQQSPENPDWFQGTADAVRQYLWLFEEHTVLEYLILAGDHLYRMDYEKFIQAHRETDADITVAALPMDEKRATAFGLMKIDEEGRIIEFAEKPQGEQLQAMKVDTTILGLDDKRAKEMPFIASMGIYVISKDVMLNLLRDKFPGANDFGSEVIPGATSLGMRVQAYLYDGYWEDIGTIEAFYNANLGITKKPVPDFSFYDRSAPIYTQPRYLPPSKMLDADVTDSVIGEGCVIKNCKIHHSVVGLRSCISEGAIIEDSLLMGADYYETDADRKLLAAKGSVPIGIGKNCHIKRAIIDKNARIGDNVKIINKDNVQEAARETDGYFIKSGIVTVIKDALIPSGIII
T4 sequence (Q00081 7-470): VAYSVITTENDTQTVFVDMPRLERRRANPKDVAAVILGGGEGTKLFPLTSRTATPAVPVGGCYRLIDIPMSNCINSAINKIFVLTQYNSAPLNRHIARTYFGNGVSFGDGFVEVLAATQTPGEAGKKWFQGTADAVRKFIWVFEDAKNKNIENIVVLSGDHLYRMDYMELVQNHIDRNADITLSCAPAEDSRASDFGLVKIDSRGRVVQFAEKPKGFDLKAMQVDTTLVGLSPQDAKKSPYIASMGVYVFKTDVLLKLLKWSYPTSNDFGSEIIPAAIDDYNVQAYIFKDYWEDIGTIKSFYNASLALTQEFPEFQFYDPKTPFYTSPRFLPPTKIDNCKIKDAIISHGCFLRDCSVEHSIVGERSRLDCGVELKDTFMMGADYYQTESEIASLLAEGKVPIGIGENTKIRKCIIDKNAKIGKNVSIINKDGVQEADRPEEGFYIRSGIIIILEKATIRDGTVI

T2 sequence (P30521 whole entry Q58A): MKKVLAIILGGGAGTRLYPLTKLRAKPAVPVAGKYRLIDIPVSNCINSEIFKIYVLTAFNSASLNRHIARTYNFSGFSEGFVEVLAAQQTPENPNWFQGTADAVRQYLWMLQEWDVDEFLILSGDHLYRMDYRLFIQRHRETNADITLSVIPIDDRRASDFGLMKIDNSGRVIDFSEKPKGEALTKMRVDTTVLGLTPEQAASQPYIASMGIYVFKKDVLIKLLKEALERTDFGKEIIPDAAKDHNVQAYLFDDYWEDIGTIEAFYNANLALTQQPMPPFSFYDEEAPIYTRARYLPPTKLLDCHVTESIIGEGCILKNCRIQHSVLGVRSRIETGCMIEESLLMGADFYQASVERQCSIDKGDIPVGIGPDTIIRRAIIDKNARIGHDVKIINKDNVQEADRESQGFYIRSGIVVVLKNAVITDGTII
T3 sequence (P30521 whole entry W96A): as the sequence (P30521 whole entry Q58A) above, with A58Q, W96A counted along it
T1 sequence (P30521 whole entry): as the sequence (P30521 whole entry Q58A) above, with A58Q counted along it

EC50 [1]: 76 ± 4 µM
EC50 [2]: 95 ± 8 µM
EC50 [3]: 83 ± 8 µM
EC50 [4]: 54 ± 4 µM
Structure (SMILES): O=C(O)[C@H](O)COP(=O)(O)O [3-PGA, 3-phosphoglycerate]
